For 37 compounds, IC50, Emax and EC1.5 results are on record in patent US9556201B2, “Bicyclic pyridines and analogs as sirtuin modulators” (GLAXOSMITHKLINE LLC, priority 2009, dated 2017).

One test deals with TNF. In words: TNF IC50 (column of Table 1; method not shown). Format: cell-based.
For the next test, the target named is T1, SIRT1 (Homo sapiens, UniProt Q96EB6).
T1 sequence (Q96EB6 1-747): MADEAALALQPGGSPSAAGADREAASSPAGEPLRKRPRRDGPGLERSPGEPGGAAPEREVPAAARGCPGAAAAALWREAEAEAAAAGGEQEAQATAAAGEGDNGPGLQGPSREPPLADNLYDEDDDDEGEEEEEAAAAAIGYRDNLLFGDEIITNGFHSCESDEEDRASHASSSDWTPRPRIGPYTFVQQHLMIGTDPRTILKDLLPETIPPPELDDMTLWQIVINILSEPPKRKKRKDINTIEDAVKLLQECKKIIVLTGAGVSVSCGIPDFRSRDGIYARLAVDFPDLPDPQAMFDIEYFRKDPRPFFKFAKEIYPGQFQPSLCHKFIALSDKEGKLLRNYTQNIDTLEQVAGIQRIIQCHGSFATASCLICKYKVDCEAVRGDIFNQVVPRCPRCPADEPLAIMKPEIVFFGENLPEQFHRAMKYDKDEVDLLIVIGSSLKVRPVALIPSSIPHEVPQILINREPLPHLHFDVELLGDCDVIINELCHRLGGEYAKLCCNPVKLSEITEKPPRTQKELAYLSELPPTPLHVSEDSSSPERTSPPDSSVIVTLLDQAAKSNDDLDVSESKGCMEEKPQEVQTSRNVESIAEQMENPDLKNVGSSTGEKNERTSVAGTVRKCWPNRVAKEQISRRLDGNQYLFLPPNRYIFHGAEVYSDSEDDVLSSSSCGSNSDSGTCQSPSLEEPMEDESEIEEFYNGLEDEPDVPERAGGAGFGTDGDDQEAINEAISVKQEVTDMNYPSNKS
In words: Mass spectrometry based assay to identify modulators of SIRT1 activity (deacetylation of p53-based acetylated peptide substrate). Format: biochemical. Particulars: SIRT1 activation; for Emax: 25 min, read-out: % FOLD ACT. (percent maximum fold activation). The method, boiled down: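 Deacetylation of a modified p53 acetyl-lysine peptide ([…], 5TMR-labelled, Nle for Met) by 10 nM N-His SIRT1 with 120 μM βNAD+, pH 8, 25 min, 25 °C. Substrate and product masses measured by MS after formic acid quench; nicotinamide defines maximal inhibition.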

SMILES strings stand for the structures.

The IC50 is the concentration needed to halve the response being measured. In the test with TNF, `O=C(Nc1ccncc1)N1CCCc2ccc(-c3cccc(C(F)(F)F)c3)nc21` [Compound 645] showed an IC50 below 20 µM. Also, at SIRT1, the Emax was above 200% and the EC1.5 entry is “A (EC1.5<1.0 μM)”.

In the test with TNF, `Cc1csc(NC(=O)N2CCCc3ccc(-c4cccc(C(F)(F)F)c4)nc32)n1` [Compound 588] registered a concentration for half-maximal inhibition (IC50) of at least 20 µM. Further, on SIRT1, the Emax is above 200% and the EC1.5 result is “A (EC1.5<1.0 μM)”.

In the test with TNF, `CC1(C)CN(C(=O)Nc2cncc(F)c2)c2nc(-c3cccc(N4CC[C@H](F)C4)c3)ccc2O1` [Compound 661] had an IC50 of at least 20 µM. Besides, on SIRT1, the Emax is above 200% and the EC1.5 result is “A (EC1.5<1.0 μM)”.

With `Cc1cncc(NC(=O)N2CC(C)(C)Oc3ccc(-c4cccc(N5CCCC5)c4)nc32)c1` [Compound 603], the IC50 with TNF is at least 20 µM. Besides, on SIRT1, the Emax was above 200% and the EC1.5 entry was “A (EC1.5<1.0 μM)”.

Turning to `O=C(Nc1ccnc(N2CCCC2)c1)N1CCCOc2ccc(-c3cccc(Cl)c3)nc21` [Compound 609], the IC50 with TNF was below 20 µM. In addition, on SIRT1, the Emax is above 200% and the EC1.5 result is given as “A (EC1.5<1.0 μM)”.

With `O=C(Nc1cncc(F)c1)N1CCCc2ccc(-c3cccc(F)c3)nc21` [Compound 594], in the test on TNF, the half-inhibitory concentration (IC50) is at least 20 µM. Also, on SIRT1, the EC1.5 entry is listed as “A (EC1.5<1.0 μM)”.

For the compound `Cc1cc(NC(=O)N2CCOc3ccc(-c4cccc(N5CCCC5)c4)nc32)cc(C)n1` [Compound 618], the IC50 in the test with TNF was at least 20 µM. Besides, at SIRT1, the Emax is above 200% and the EC1.5 entry is “A (EC1.5<1.0 μM)”.

Compound `Cc1cncc(NC(=O)N2CC(C)(C)Oc3ccc(-c4cccc(F)c4)nc32)c1` [Compound 591] yielded an IC50 in the test on TNF below 20 µM. In addition, at SIRT1, the Emax was above 200% and the EC1.5 entry is given as “A (EC1.5<1.0 μM)”.

In the test with TNF, `CC1(C)CN(C(=O)Nc2cncc(F)c2)c2nc(-c3cccc(N4CCCC4)c3)ccc2O1` [Compound 604] came in with an IC50 of at least 20 µM. At SIRT1, the Emax was above 200% and the EC1.5 entry is “A (EC1.5<1.0 μM)”.

The compound `Cc1cc(NC(=O)N2CCOc3c(C)cc(-c4cccc(C(F)(F)F)c4)nc32)cc(C)n1` [Compound 671] gave an IC50 with TNF below 20 µM. Also, at SIRT1, the Emax was above 200% and the EC1.5 result is on record as “A (EC1.5<1.0 μM)”.

The compound `Cc1cc(NC(=O)N2CCOc3ccc(-c4cccc(C#N)c4)nc32)cc(C)n1` [Compound 631] came in with an IC50 in the test on TNF of at least 20 µM. Also, on SIRT1, the Emax was above 200% and the EC1.5 result is recorded as “A (EC1.5<1.0 μM)”.

The compound `Cc1csc(NC(=O)N2CCCOc3ccc(-c4cccc(C(F)(F)F)c4)nc32)n1` [Compound 578] displayed an IC50 in the test on TNF of at least 20 µM. Moreover, on SIRT1, the Emax was above 200% and the EC1.5 entry is given as “A (EC1.5<1.0 μM)”.

`Cc1cc(C)nc(NC(=O)N2CCCc3ccc(-c4cccc(Cl)c4)nc32)c1` [Compound 654] came in with an IC50 in the test on TNF of at least 20 µM. For the same compound, on SIRT1, the Emax was above 200% and the EC1.5 result is recorded as “A (EC1.5<1.0 μM)”.

The compound `O=C(Nc1cccc(OC[C@H](O)CO)n1)N1CCCc2ccc(-c3cccc(C(F)(F)F)c3)nc21` [Compound 678] came in with an IC50 in the test with TNF of at least 20 µM. Moreover, on SIRT1, the Emax was above 200% and the EC1.5 entry is reported as “A (EC1.5<1.0 μM)”.

In turn, `Cc1cc(NC(=O)N2CC(C)(C)Oc3ccc(-c4cccc(N(C)C)c4)nc32)cc(C)n1` [Compound 597] displayed an IC50 in the test with TNF below 20 µM. For the same compound, on SIRT1, the Emax was above 200% and the EC1.5 entry is listed as “A (EC1.5<1.0 μM)”.

On to `O=C(Nc1cncc(F)c1)N1CCCc2ccc(-c3cccc(C(F)(F)F)c3)nc21` [Compound 586], for which the IC50 in the test on TNF was below 20 µM. At SIRT1, the Emax was above 200% and the EC1.5 entry is recorded as “A (EC1.5<1.0 μM)”.

In the test on TNF, `CN(C)c1cccc(-c2ccc3c(n2)N(C(=O)Nc2cncc(F)c2)CC(C)(C)O3)c1` [Compound 623] gave an IC50 of at least 20 µM. In addition, on SIRT1, the Emax was above 200% and the EC1.5 entry was “A (EC1.5<1.0 μM)”.

As to `Cc1cc(-c2cccc(Cl)c2)nc2c1OCCN2C(=O)Nc1cccc(OCC(O)CO)n1` (centres unmarked) [Compound 691], in the test on TNF, the IC50 was below 20 µM. On SIRT1, the Emax is above 200% and the EC1.5 result is recorded as “A (EC1.5<1.0 μM)”.

Consider `Cc1csc(NC(=O)N2CC(C)(C)Oc3ccc(-c4cccc(F)c4)nc32)n1` [Compound 622], for which the IC50 in the test with TNF was at least 20 µM. Besides, at SIRT1, the Emax was above 200% and the EC1.5 result is “A (EC1.5<1.0 μM)”.

The compound `O=C(Nc1ccnc(N2CCC2)c1)N1CCOc2ccc(-c3cccc(C(F)(F)F)c3)nc21` [Compound 513] displayed an IC50 in the test on TNF of at least 20 µM. Also, at SIRT1, the Emax was above 200% and the EC1.5 entry is “A (EC1.5<1.0 μM)”.

As to `Cc1cc(NC(=O)N2CCCOc3ccc(-c4cccc(N5CCCC5)c4)nc32)cc(C)n1` [Compound 615], in the test on TNF, the IC50 is below 20 µM. Besides, at SIRT1, the Emax was above 200% and the EC1.5 result was “A (EC1.5<1.0 μM)”.

`O=C(Nc1ccnc(N2CCCC2)c1)N1CCOc2ccc(-c3cccc(C(F)(F)F)c3)nc21` [Compound 508] came in with an IC50 with TNF of at least 20 µM. On SIRT1, the Emax is above 200% and the EC1.5 entry was “A (EC1.5<1.0 μM)”.

The compound `Cc1cc(NC(=O)N2CCOc3c(C)cc(-c4cccc(Cl)c4)nc32)cc(C)n1` [Compound 689] registered an IC50 in the test on TNF of at least 20 µM. On SIRT1, the Emax was above 200% and the EC1.5 entry was “A (EC1.5<1.0 μM)”.

For `Cc1cc(NC(=O)N2CCOc3ccc(-c4cccc(C(F)(F)F)c4)nc32)ccn1` [Compound 548], the IC50 with TNF was at least 20 µM. In addition, at SIRT1, the Emax is above 200% and the EC1.5 result is “A (EC1.5<1.0 μM)”.

In the case of `O=C(Nc1ccccn1)N1CCCc2ccc(-c3cccc(C(F)(F)F)c3)nc21` [Compound 646], in the test on TNF, the IC50 is below 20 µM. Besides, at SIRT1, the Emax is above 200% and the EC1.5 entry is recorded as “A (EC1.5<1.0 μM)”.

With `O=C(Nc1cccc(OC[C@H](O)CO)n1)N1CCOc2ccc(-c3ccc4c(c3)CCO4)nc21` [Compound 695], the IC50 in the test on TNF is below 20 µM. For the same compound, at SIRT1, the Emax was above 200% and the EC1.5 result is “A (EC1.5<1.0 μM)”.

In the test on TNF, `Cc1cc(NC(=O)N2CC(C)(C)Oc3ccc(-c4cccc(N5CCOCC5)c4)nc32)cc(C)n1` [Compound 659] showed an IC50 below 20 µM. Also, on SIRT1, the Emax was above 200% and the EC1.5 result was “A (EC1.5<1.0 μM)”.

`O=C(Nc1ccnc(N2CCC2)c1)N1CCCOc2ccc(-c3cccc(Cl)c3)nc21` [Compound 608] came in with an IC50 in the test with TNF below 20 µM. On SIRT1, the Emax was above 200% and the EC1.5 result is “A (EC1.5<1.0 μM)”.

`O=C(Nc1ccnc(N2CCCC2)c1)N1CCCOc2ccc(-c3cccc(N4CCCC4)c3)nc21` [Compound 612] returned an IC50 in the test on TNF below 20 µM. At SIRT1, the Emax is above 200% and the EC1.5 result is recorded as “A (EC1.5<1.0 μM)”.

In the test on TNF, `O=C(Nc1ccnc(N2CCC2)c1)N1CCCc2ccc(-c3cccc(F)c3)nc21` [Compound 596] showed an IC50 below 20 µM. Moreover, at SIRT1, the Emax was above 200% and the EC1.5 entry is “A (EC1.5<1.0 μM)”.

Turning to `CN1CCN(C(=O)Nc2cccnn2)c2nc(-c3cccc(C(F)(F)F)c3)ccc21` [Compound 537], the IC50 with TNF is at least 20 µM. In addition, at SIRT1, the Emax is above 200% and the EC1.5 result was “A (EC1.5<1.0 μM)”.

`O=C(Nc1ccc(F)cn1)N1CCOc2ccc(-c3cccc(C(F)(F)F)c3)nc21` [Compound 566]: the IC50 in the test with TNF is at least 20 µM. Moreover, on SIRT1, the Emax is above 200% and the EC1.5 result is given as “A (EC1.5<1.0 μM)”.

For the compound `O=C(Nc1cccc(N2CCOCC2)n1)N1CCOc2ccc(-c3cccc(C(F)(F)F)c3)nc21` [Compound 506, N-(6-morpholinopyridin-2-yl)-6-(3-(trifluoromethyl)phenyl)-2H-pyrido[3,2-b][1,4]oxazine-4(3H)-carboxamide], the half-inhibitory concentration (IC50) in the test on TNF is at least 20 µM. Also, at SIRT1, the Emax was above 200% and the EC1.5 result was “A (EC1.5<1.0 μM)”.

Regarding `CN1CCN(C(=O)Nc2ccnc(N3CCC3)c2)c2nc(-c3cccc(C(F)(F)F)c3)ccc21` [Compound 538], the IC50 in the test on TNF was below 20 µM. Further, on SIRT1, the Emax is above 200% and the EC1.5 entry is on record as “A (EC1.5<1.0 μM)”.

On to `Cc1cncc(NC(=O)N2CC(C)(C)Oc3ccc(-c4cccc(N(C)C)c4)nc32)c1` [Compound 593], for which the IC50 with TNF is at least 20 µM. For the same compound, at SIRT1, the Emax is above 200% and the EC1.5 entry is reported as “A (EC1.5<1.0 μM)”.

`Cc1cc(-c2cccc(C(F)(F)F)c2)nc2c1OCCN2C(=O)Nc1ccncc1F` [Compound 663] came in with an IC50 in the test on TNF of at least 20 µM. On SIRT1, the Emax was above 200% and the EC1.5 result was “A (EC1.5<1.0 μM)”.

In turn, `Cc1csc(NC(=O)N2CC(C)(C)Oc3ccc(-c4cccc(N(C)C)c4)nc32)n1` [Compound 624] gave an IC50 with TNF below 20 µM. Moreover, on SIRT1, the Emax is above 200% and the EC1.5 entry is on record as “A (EC1.5<1.0 μM)”.
